Assay results reported in patent US9540370B2, “Heterocyclic compounds and their use as glycogen synthase kinase-3 inhibitors” (ABBVIE DEUTSCHLAND GMBH & CO. KG, priority 2010, dated 2017).

What follows are compounds tested against T1, human Glycogen Synthase Kinase-3 beta (hGSK-3β) (Homo sapiens, UniProt P49841) (assay: Biochemical hGSK-3Beta assay (33P incorporation into biotinylated peptide substrate)). Conditions: 10 μM ATP, 30 minutes at room temperature; read-out: GSK-3β IC50.
T1 construct: purchased Upstate cell signaling solutions
Description: Methods—Biochemical hGSK-3Beta Assay
Compounds were tested for their ability to inhibit human Glycogen Synthase Kinase-3 beta (hGSK-3β) to phosphorylate biotin-[…](pS)EDEEE. Compounds were incubated with 0.5 μCi 33P-ATP, 10 μM ATP, 0.0125 U hGSK-3β (Upstate cell signaling solutions) and 1 μM substrate (biotin-[…](pS)EDEEE) in 50 mM HEPES, 10 mM MgCl2, […], 1 mM DTT, 0.0075% Triton, 2% DMSO (total volume 50 μL) for 30 minutes at room temperature. The incubation was stopped by addition of an equal volume of 100 mM EDTA, 4M NaCl. 80 μL of this mixture was added to streptavidin-coated Flash -plates (Perkin Elmer). Following a wash step, 33P incorporation was quantified on a MicroBeta microplate liquid scintillation counter (PerkinElmer). IC50s were determined by fitting a sigmoidal dose-response curve to the counts obtained at the different concentrations in GraphPad Prism.

T1 sequence (P49841 whole entry): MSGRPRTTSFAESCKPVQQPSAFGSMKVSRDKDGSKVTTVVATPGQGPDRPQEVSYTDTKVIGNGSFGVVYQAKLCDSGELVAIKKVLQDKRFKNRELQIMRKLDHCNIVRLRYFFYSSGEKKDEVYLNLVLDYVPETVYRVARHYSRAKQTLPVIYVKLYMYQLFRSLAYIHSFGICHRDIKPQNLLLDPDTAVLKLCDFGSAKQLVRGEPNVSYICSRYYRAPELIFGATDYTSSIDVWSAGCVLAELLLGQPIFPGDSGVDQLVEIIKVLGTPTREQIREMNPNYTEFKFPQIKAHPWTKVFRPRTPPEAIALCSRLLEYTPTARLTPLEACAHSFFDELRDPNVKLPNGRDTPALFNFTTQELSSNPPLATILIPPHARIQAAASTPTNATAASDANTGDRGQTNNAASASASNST

Row | IC50 [µM] | Structure (SMILES)
1 | < 0.1 | O=C(Nc1cccc(C2=CCOCC2)n1)Nc1ccnc2c(F)cccc12 [Example 1, 1-(6-(3,6-Dihydro-2H-pyran-4-yl)pyridin-2-yl)-3-(8-fluoroquinolin-4-yl)urea]
2 | < 0.1 | O=C(Nc1cccc(C2CCOCC2)n1)Nc1ccnc2c(F)cccc12 [Example 2, 1-(8-Fluoroquinolin-4-yl)-3-(6-(tetrahydro-2H-pyran-4-yl)pyridin-2-yl)urea]
3 | < 0.1 | O=C(Nc1cccc(C2=COCCC2)n1)Nc1ccnc2c(F)cccc12 [Example 3, 1-(6-(3,4-Dihydro-2H-pyran-5-yl)pyridin-2-yl)-3-(8-fluoroquinolin-4-yl)urea]
4 | < 0.1 | O=C(Nc1cccc(C(F)(F)F)n1)Nc1ccnc2ccc(Br)cc12 [Example 16, 1-(6-Bromo-quinolin-4-yl)-3-(6-trifluoromethyl-pyridin-2-yl)-urea]
5 | < 0.1 | O=C(Nc1cccc(C(F)(F)F)n1)Nc1ccnc2ccccc12 [Example 17, 1-(6-(Trifluoromethyl)pyridin-2-yl)-3-quinolin-4-yl-urea]
6 | < 0.1 | O=C(Nc1cccc(C(F)(F)F)n1)Nc1ccnc2c(F)cc(F)cc12 [Example 18, 1-(6,8-Difluoroquinolin-4-yl)-3-(6-trifluoromethyl-pyridin-2-yl)-urea]
7 | < 0.1 | O=C(Nc1cccc(C(F)(F)F)n1)Nc1ccnc2cc(Br)ccc12 [Example 19, 1-(7-Bromoquinolin-4-yl)-3-(6-trifluoromethyl-pyridin-2-yl)-urea]
8 | < 0.1 | COc1ccc2c(NC(=O)Nc3cccc(C(F)(F)F)n3)ccnc2c1 [Example 21, 1-(7-Methoxyquinolin-4-yl)-3-(6-trifluoromethyl-pyridin-2-yl)-urea]
9 | < 0.1 | N#Cc1cccc2c(NC(=O)Nc3cccc(C(F)(F)F)n3)ccnc12 [Example 23]
10 | < 0.1 | O=C(Nc1cccc(C(F)(F)F)n1)Nc1ccnc2c(I)cccc12 [Example 24, 1-(8-Iodoquinolin-4-yl)-3-(6-trifluoromethyl-pyridin-2-yl)-urea]
